# Where a name gives a salt, the structure may show the parent alone.
# What was measured:
# [1] = molecular target: T1, Norepinephrine (NE) uptake into rat brain synaptosome (hippocampus) (Rattus norvegicus, UniProt Q63380); assay: Inhibitory activity on norepinephrine (NE) uptake into rat brain synaptosome; type: biochemical; details: tritium-labeled NE 12 nM uptake, 10 min at 37° C., read-out: 50% inhibitory concentration
# T1 construct: used as crude synaptosome fraction; from tissue; host or cells: rat (male Wistar) hippocampus, crude synaptosome fraction
# Description: Pharmacological Test 2 Evaluation of Inhibitory Activity of Test Compound on Norepinephrine (NE) Uptake into Rat Brain Synaptosome
# (§1) Male Wistar rats were decapitated and the brains were removed and the hippocampi were dissected. The separated hippocampi were homogenized in 20 volumes as weight of 0.32 M sucrose solution by a Potter-type homogenizer. The homogenate was centrifuged at 1000 g at 4° C. for 10 minutes, and the supernatant was then centrifuged at 20000 g at 4° C. for 20 minutes. The pellet was resuspended in incubation buffer (20 mM HEPES buffer (pH 7.4)) containing 10 mM glucose, 145 mM sodium chloride, 4.5 mM potassium chloride, 1.2 mM magnesium chloride, and 1.5 mM calcium chloride) and used as crude synaptosome fraction.
# The uptake reaction mixture was suspended in final volume of 200 μl containing pargyline (final concentration of 10 μM) and sodium ascorbate (final concentration of 0.2 mg/ml) in each well of 96-well-round-bottom-plate.
# (§2) Solvent, unlabeled NE, and serial diluted test compounds were added to each well, and synaptosome fraction of 1/10 volume of the final volume were added. After 10 minutes preincubation at 37° C., the uptake was initiated by the addition of tritium-labeled NE solution (final concentration of 12 nM) at 37° C. The uptake was stopped after 10 minutes by filtration under vacuum through a 96-well glass fiber filter plate. After washing the filter with cold physiological saline and drying up, Microscint-0 (Perkin-Elmer) was added, and remained radioactivity on the filter was measured.
# (§3) The total uptake activity with only solvent was determined as 100%, and the nonspecific uptake activity with unlabeled NE (final concentration of 10 μM) was determined as 0%. The 50% inhibitory concentrations were calculated based on the concentrations of the test compounds and their inhibitory activities.
# [2] = molecular target: T2, Serotonin (5-HT) uptake into rat brain synaptosome (frontal cortex) (Rattus norvegicus, UniProt P31652); assay: Inhibitory activity on serotonin (5-HT) uptake into rat brain synaptosome; type: biochemical; details: tritium-labeled 5-HT 8 nM uptake, 10 min at 37° C., read-out: 50% inhibittory concentration
# T2 construct: used as crude synaptosome fractions; from tissue; host or cells: rat (male Wistar) frontal cortex, crude synaptosome fraction
# Description: Pharmacological Test 1 Evaluation of Inhibitory Activity of Test Compound on Serotonin (5-HT) Uptake into Rat Brain Synaptosome
# as §1, with “frontal cortices” for “hippocampi”, “fractions.” for “fraction.”
# (§4) The uptake reaction mixture was suspended in a final volume of 200 μl containing pargyline (final concentration of 10 μM) and sodium ascorbate (final concentration of 0.2 mg/ml) in each well of 96-well-round-bottom-plate.
# Solvent, unlabeled 5-HT, and serial diluted test compounds were added in each well, and synaptosome fraction of 1/10 volume of the final volume were added. After a 10 min preincubation at 37° C., the uptake was initiated by the addition of tritium-labeled 5-HT solution (final concentration of 8 nM) at 37° C. The uptake was stopped after 10 minutes by filtration under vacuum through a 96-well glass fiber filter plate. After washing the filter with cold physiological saline and drying up, Microscint-O (Perkin-Elmer) was added, and remained radioactivity on the filter was measured.
# as §3, with “5-HT” for “NE”
# [3] = molecular target: T3, Dopamine (DA) uptake into rat brain synaptosome (striatum) (Rattus norvegicus, UniProt P23977); assay: Inhibitory activity on dopamine (DA) uptake into rat brain synaptosome; type: biochemical; details: tritium labeled DA 2 nM uptake, 10 min at 37° C., read-out: 50% inhibitory concentration
# T3 construct: used as crude synaptosome fraction; from tissue; host or cells: rat (male Wistar) striatum, crude synaptosome fraction
# Description: Pharmacological Test 3 Evaluation of Inhibitory Activity of Test Compound on Dopamine (DA) into Rat Brain Synaptosome
# as §1, with “striata” for “hippocampi”
# as §4
# as §2, with “unlabeled DA,” for “unlabeled NE,”, “added in” for “added to”, “After 10-min” for “After 10 minutes”, “of tritium labeled DA” for “of tritium-labeled NE”, “of 2” for “of 12”, “was added” for “was added,”
# as §3, with “The” for “The total”, “DA” for “NE”
# T3 sequence (P23977 whole entry): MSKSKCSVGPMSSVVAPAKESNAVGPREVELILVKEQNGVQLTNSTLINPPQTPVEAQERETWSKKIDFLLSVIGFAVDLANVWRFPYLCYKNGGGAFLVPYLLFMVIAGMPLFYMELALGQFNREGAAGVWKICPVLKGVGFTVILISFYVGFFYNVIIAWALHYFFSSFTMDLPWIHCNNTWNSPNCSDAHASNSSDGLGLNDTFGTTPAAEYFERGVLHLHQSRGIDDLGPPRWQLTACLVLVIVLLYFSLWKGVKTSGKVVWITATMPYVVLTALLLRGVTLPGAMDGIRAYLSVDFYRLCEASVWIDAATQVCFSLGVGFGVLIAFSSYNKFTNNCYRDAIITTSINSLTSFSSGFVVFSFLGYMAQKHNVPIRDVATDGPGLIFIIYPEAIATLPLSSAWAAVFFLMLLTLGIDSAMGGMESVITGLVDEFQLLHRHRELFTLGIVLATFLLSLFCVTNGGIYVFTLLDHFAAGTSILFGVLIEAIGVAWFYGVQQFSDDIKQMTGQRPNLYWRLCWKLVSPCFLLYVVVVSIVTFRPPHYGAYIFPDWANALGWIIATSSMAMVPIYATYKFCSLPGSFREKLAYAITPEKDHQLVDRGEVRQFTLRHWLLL
# T2 sequence (P31652 whole entry): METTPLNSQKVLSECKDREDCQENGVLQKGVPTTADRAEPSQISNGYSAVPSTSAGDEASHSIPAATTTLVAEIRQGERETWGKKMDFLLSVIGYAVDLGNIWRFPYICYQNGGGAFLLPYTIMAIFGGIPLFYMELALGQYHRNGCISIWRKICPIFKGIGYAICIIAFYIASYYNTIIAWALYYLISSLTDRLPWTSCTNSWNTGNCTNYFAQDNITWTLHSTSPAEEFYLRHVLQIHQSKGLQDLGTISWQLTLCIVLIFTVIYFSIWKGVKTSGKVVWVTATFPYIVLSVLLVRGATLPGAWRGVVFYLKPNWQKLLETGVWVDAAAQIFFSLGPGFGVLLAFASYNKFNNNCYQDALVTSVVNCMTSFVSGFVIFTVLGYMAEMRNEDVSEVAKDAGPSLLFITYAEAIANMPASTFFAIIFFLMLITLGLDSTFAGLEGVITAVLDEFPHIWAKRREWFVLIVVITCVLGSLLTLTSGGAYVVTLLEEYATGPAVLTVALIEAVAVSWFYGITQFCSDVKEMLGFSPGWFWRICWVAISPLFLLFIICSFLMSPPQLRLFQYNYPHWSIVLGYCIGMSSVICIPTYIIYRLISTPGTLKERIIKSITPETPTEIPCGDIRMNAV
# T1 sequence (Q63380 1-617): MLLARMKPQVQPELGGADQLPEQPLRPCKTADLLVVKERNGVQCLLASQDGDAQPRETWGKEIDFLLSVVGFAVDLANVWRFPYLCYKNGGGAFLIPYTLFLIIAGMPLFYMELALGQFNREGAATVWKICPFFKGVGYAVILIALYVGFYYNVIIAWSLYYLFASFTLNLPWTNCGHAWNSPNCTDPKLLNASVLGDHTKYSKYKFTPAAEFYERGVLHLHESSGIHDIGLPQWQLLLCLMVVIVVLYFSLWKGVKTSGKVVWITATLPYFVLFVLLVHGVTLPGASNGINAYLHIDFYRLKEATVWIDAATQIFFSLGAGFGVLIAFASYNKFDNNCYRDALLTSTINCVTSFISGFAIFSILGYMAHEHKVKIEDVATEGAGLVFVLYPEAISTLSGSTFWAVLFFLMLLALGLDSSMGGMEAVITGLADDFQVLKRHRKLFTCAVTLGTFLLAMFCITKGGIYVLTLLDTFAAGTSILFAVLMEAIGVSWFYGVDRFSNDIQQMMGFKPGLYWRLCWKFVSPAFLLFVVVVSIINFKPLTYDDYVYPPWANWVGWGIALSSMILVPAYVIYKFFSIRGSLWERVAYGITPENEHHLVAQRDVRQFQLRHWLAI
SMILES,melting point [°C],IC50 [1] [nM],IC50 [2] [nM],IC50 [3] [nM]
Fc1ccc(N(c2ccccc2)[C@H]2CCNC2)cc1 (as salt: fumarate) [Example 20],143 to 145,,,
Fc1ccc(N(c2ccccn2)[C@H]2CCNC2)cc1Cl (as salt: fumarate) [Example 154],152.4 to 154.4,,,
"CS(=O)(=O)O.CS(=O)(=O)O.Fc1ccc(N(c2cccnc2)[C@H]2CCNC2)cc1Cl [Example 7, (3-chloro-4-fluorophenyl) pyridin-3-yl-(S)-pyrrolidin-3-ylamine dimethanesulfonate]",194 to 195,0.4,3,45
Fc1ccc(N(c2ccc3ccsc3c2)[C@H]2CCNC2)cc1 (as salt: fumarate) [Example 114],131.6 to 133.3,,,
N#Cc1ccc(N(c2ccc(F)c(Cl)c2)[C@H]2CCNC2)cc1 (as salt: fumarate) [Example 73],174 to 175,,,
Cc1ccc(N(c2ccccc2)[C@H]2CCNC2)cc1 (as salt: fumarate) [Example 22],141.7 to 143.8,,,
Fc1ccc(N(c2ccc(N3CCNCC3)cn2)[C@H]2CCNC2)cc1Cl (as salt: hydrochloride) [Example 200],212 to 215,,,
Clc1ccc(N(c2ccccn2)[C@H]2CCNC2)cc1Cl (as salt: hydrochloride) [Example 188],135 to 138,,,
c1ccc(N(c2ccc3sccc3c2)[C@H]2CCNC2)cc1 (as salt: hydrochloride) [Example 116],158 to 160,,,
CCN1CCN(c2ccc(N(c3ccc(F)c(Cl)c3)[C@H]3CCNC3)nc2)CC1 (as salt: hydrochloride) [Example 201],208 to 211,,,
CSc1ccc(N(c2ccccc2)[C@H]2CCNC2)cc1 (as salt: fumarate) [Example 19],152.9 to 155.5,,,
Fc1ccc(N(c2ccc(-c3cnco3)cc2)[C@H]2CCNC2)cc1Cl [Example 90],115 to 117,0.7,1.2,4.8
Fc1cccc(N(c2ccc(C(F)(F)F)cc2)[C@H]2CCNC2)c1.O=C(O)/C=C/C(=O)O.O=C(O)/C=C/C(=O)O,144 to 146.2,,,
Fc1ccc(N(c2nccs2)[C@H]2CCNC2)cc1Cl (as salt: fumarate) [Example 131],128 to 129.9,,,

# Results, then the compound that gave them:
melting point [°C],IC50 [1] [nM],IC50 [2] [nM],IC50 [3] [nM],SMILES
229 to 231,,,,Clc1ccc(N(c2ccncc2)[C@H]2CCNC2)cc1Cl (as salt: salt) [Example 273]
108 to 110,,,,Clc1ccc(N(c2cccnc2)[C@H]2CCNC2)cc1Cl (as salt: hydrochloride) [Example 242]
150 to 156,,,,Fc1ccc(N(c2ccc3cnsc3c2)[C@H]2CCNC2)cc1Cl (as salt: hydrochloride) [Example 930]
120 to 124,,,,Clc1ccc(N(c2cnccn2)[C@H]2CCNC2)cc1Cl (as salt: hydrochloride) [Example 963]
135 to 136,,,,Fc1ccc(N(c2ccsc2)[C@H]2CCNC2)cc1Cl (as salt: fumarate) [Example 278]
,0.5,3,38,Cc1cc(N(c2cncc(F)c2)[C@H]2CCNC2)ccc1F [Example 895]
136 to 137,,,,Fc1ccc(N(c2ccc(Cl)nc2)[C@H]2CCNC2)cc1Cl (as salt: fumarate) [Example 244]
,0.1,0.9,25.4,CC(C)(O)CN(c1ccc(F)c(Cl)c1)[C@H]1CCNC1 [Example 967]
96 to 98,,,,Fc1ccc(N(c2ccc(Cl)c(Cl)c2)[C@H]2CCNC2)nc1 (as salt: hydrochloride) [Example 961]
241.5 to 243.5,,,,c1ccc(N(c2ccc3sccc3n2)[C@H]2CCNC2)cc1 (as salt: hydrochloride) [Example 934]
